Assay results: patent US8563593B2, “Formulations of (R)-1-(2,2-difluorobenzo[D] [1,3] dioxol-5-yl)-N-(1-(2,3-dihydroxypropyl)-6-fluoro-2-(1-hydroxy-2-methylpropan-2-yl)-1H-indol-5-yl)cyclopropanecarboxamide” (Vertex Pharmaceuticals Incorporated, priority 2010, dated 2013)

Key:
[1] = Solubility of Compound 1 with and without PEG cosolvent and vitamin E TPGS; type: physicochemical
Excerpt: The PEG cosolvent and vitamin E TPGS induced micelle formation increase Compound 1 solubility from 7 micrograms to several milligrams per g of solution.

ΔF508-CFTR = molecular target: T1, ΔF508-CFTR (Homo sapiens, UniProt P13569, DEL508-508); experiment: Assays for detecting and measuring ΔF508-CFTR correction properties (membrane potential optical assay); type: cell-based; conditions: PercentActivity; NIH3T3 mouse fibroblasts stably expressing ΔF508-CFTR
T1 construct: expressed in transfected cells
Excerpt: Assays for Detecting and Measuring ΔF508-CFTR Correction Properties of Compounds
Membrane Potential Optical Methods for Assaying ΔF508-CFTR Modulation Properties of Compounds
The optical membrane potential assay utilized voltage-sensitive FRET sensors described by Gonzalez and Tsien (See Gonzalez, J. E. and R. Y. Tsien (1995) “Voltage sensing by fluorescence resonance energy transfer in single cells” Biophys J 69(4): 1272-80, and Gonzalez, J. E. and R. Y. Tsien (1997) “Improved indicators of cell membrane potential that use fluorescence resonance energy transfer” Chem Biol 4(4): 269-77) in combination with instrumentation for measuring fluorescence changes such as the Voltage/Ion Probe Reader (VIPR) (See, Gonzalez, J. E., K. Oades, et al. (1999) “Cell-based assays and instrumentation for screening ion-channel targets” Drug Discov Today 4(9): 431-439).
These voltage sensitive assays are based on the change in fluorescence resonant energy transfer (FRET) between the membrane-soluble, voltage-sensitive dye, DiSBAC2(3), and a fluorescent phospholipid, CC2-DMPE, which is attached to the outer leaflet of the plasma membrane and acts as a FRET donor. […] The changes in fluorescence emission were monitored using VIPR™ II, which is an integrated liquid handler and fluorescent detector designed to conduct cell-based screens in 96- or 384-well microtiter plates. […]

T1 sequence (P13569 with tags, fused parts or gaps DEL508-508): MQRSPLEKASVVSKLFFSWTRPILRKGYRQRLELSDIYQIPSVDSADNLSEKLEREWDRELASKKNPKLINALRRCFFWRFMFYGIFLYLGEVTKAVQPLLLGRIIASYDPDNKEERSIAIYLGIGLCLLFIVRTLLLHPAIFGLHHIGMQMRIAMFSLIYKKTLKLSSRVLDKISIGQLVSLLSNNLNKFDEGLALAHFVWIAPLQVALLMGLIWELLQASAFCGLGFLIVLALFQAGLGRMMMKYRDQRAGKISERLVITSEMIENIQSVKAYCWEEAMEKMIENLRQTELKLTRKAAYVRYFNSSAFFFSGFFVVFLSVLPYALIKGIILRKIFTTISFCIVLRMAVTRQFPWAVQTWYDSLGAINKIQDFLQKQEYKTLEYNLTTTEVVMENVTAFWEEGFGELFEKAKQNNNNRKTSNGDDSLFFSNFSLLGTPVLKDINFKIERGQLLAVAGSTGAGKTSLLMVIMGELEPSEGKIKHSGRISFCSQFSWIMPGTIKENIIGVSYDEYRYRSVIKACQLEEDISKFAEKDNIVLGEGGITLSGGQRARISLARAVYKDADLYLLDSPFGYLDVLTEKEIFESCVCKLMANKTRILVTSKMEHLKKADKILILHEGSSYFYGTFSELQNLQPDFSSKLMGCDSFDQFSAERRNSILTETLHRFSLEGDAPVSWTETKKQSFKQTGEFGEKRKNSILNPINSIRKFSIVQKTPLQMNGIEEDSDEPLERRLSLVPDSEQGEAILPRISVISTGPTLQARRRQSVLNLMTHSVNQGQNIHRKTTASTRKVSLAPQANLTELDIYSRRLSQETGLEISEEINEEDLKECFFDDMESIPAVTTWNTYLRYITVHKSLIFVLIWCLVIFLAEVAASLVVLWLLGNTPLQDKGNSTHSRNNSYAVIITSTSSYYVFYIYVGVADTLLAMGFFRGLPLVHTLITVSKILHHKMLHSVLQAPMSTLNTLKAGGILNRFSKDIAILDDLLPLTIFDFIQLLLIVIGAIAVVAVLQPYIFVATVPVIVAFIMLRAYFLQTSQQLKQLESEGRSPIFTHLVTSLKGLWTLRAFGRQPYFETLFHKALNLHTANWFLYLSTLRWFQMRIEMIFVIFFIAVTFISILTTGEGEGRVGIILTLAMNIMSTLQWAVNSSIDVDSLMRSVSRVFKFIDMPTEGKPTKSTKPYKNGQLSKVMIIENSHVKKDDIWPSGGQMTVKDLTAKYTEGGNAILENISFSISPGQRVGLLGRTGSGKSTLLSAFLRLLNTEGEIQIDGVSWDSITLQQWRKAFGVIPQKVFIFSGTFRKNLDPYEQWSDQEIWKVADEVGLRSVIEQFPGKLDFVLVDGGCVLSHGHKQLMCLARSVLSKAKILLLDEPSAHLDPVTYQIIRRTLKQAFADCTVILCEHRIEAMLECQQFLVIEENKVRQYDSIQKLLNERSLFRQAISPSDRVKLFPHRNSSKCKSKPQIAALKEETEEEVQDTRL

Compound 1 solubility ([1]; with PEG cosolvent and vitamin E TPGS induced micelle formation): several
Compound 1 solubility ([1]; without PEG cosolvent and vitamin E TPGS): 7 micrograms per g of solution
Structure (SMILES): CC(C)(CO)c1cc2cc(NC(=O)C3(c4ccc5c(c4)OC(F)(F)O5)CC3)c(F)cc2n1C[C@@H](O)CO [Compound 1, (R)-1-(2,2-difluorobenzo[d][1,3]dioxol-5-yl)-N-(1-(2,3-dihydroxypropyl)-6-fluoro-2-(1-hydroxy-2-methylpropan-2-yl)-1H-indol-5-yl)cyclopropanecarboxamide]
Binned MaxEfficacy (ΔF508-CFTR): +++ (PercentActivity Bins: + <= 25.0 < ++ <= 100.0 < +++)
